Measured values as given in US7271165B2, “Rifamycin analogs and uses thereof” (priority 2003, dated 2007).
In brackets after ≈: the same amount, converted by molar mass.

Columns and labels:
E coli = experiment: MIC assay, E coli; type: cell-based
H. flu = type: cell-based, H. influenza; conditions: H. flu
S. pneumo. = experiment: MIC assay, S. pneumo.; type: cell-based, Streptococcus pneumoniae
E. faecalis = experiment: MIC assay, E. faecalis; type: cell-based, Enterococcus faecalis
S. aureus = experiment: MIC assay, S. aureus; type: cell-based, Staphylococcus aureus

Row | Molecule | MIC (μg/mL) E coli (E coli) [µg/mL] | MIC (μg/mL) H. flu (H. flu) [µg/mL] | MIC (μg/mL) S. pneumo. (S. pneumo.) [µg/mL] | MIC (μg/mL) E. faecalis (E. faecalis) [µg/mL] | MIC (μg/mL) S. aureus (S. aureus) [µg/mL]
1 | 3′-hydroxy-5′-(4-ethylcarbamyl-1-piperidinyl)benzoxazinorifamycin [Compound 1] | >8 | 2 | 0.00025 | 2 | 0.008
2 | 25-O-deacetyl-5′-[(8aR)octahydropyrrolo[1,2-a]pyrazin-2-yl]benzthiazinorifamycin [Compound 78] | 4 | 0.12 | 0.00012 | 0.12 | 0.002
3 | CCOC(=O)N1CCCC2CN(c3cc(O)c4nc5c6c7c8c(C)c(O)c6c(=O)c(c-5oc4c3)NC(=O)C(C)=CC=CC(C)C(O)C(C)C(O)C(C)C(O)C(C)C(OC)C=COC(C)(O8)C7=O)CC21 (mixture of isomers) [Compound 42, 25-O-deacetyl-3′-hydroxy-5′-[1-ethylcarbamyl-(4aR,7aR)-octahydro-6H-pyrrolo [3,4-b]pyridin-6-yl]benzoxazinorifamycin] | 8 | 0.5 | 0.00012 | 2 | 0.008
4 | CCOC(=O)N1CCCC2CN(c3cc(O)c4nc5c6c7c8c(C)c(O)c6c(=O)c(c-5oc4c3)NC(=O)C(C)=CC=CC(C)C(O)C(C)C(O)C(C)C(OC(C)=O)C(C)C(OC)C=COC(C)(O8)C7=O)CC21 (single isomer, unassigned) [Compound 40] | >8 | 0.5 (≈ 0.501 µM) | 0.008 (≈ 0.00802 µM) | 1 (≈ 1 µM) | 0.06 (≈ 0.0602 µM)
5 | COC1C=COC2(C)Oc3c(C)c(O)c4c(=O)c(c5oc6cc(N7CC8C(C7)C8NC(=O)OCC[Si](C)(C)C)cc(O)c6nc-5c4c3C2=O)NC(=O)C(C)=CC=CC(C)C(O)C(C)C(O)C(C)C(OC(C)=O)C1C [Compound 2, 3′-hydroxy-5′-[6-(2-trimethylsilyl)ethylcarbamyl-(1R,5S)-3-azabicyclo[3.1.0]hex-3-yl]benzoxazinorifamycin] | >8 | >8 | 0.03 (≈ 0.0288 µM) | >8 | 1 (≈ 0.96 µM)
6 | CCOC(=O)NC1CCN(c2cc(O)c3nc4c5c6c7c(C)c(O)c5c(=O)c(c-4oc3c2)NC(=O)/C(C)=C\C=C\[C@H](C)[C@H](O)[C@@H](C)[C@@H](O)[C@@H](C)[C@H](O)[C@H](C)[C@@H](OC)/C=C/O[C@@](C)(O7)C6=O)CC1 [Compound 3, 25-O-deacetyl-3′-hydroxy-5′-(4-ethylcarbamyl-1-piperidinyl)benzoxazinorifamycin] | 4 (≈ 4.31 µM) | 0.25 (≈ 0.269 µM) | 0.0005 (≈ 0.000538 µM) | 0.12 (≈ 0.129 µM) | 0.03 (≈ 0.0323 µM)
7 | COC1C=COC2(C)Oc3c(C)c(O)c4c(=O)c(c5oc6cc(N7CC8C(N)C8C7)cc(O)c6nc-5c4c3C2=O)NC(=O)C(C)=CC=CC(C)C(O)C(C)C(O)C(C)C(OC(C)=O)C1C [Compound 4, 3′-hydroxy-5′-[6-amino-(1R,5S)-3-azabicyclo[3.1.0]hex-3-yl]benzoxazinorifamycin] | >8 | 0.25 (≈ 0.279 µM) | 0.00025 (≈ 0.000279 µM) | 0.5 (≈ 0.557 µM) | 0.03 (≈ 0.0334 µM)
8 | CO[C@H]1/C=C/O[C@@]2(C)Oc3c(C)c(O)c4c(=O)c(c5oc6cc(N7C[C@@H]8CCCN[C@@H]8C7)cc(O)c6nc-5c4c3C2=O)NC(=O)/C(C)=C\C=C\[C@H](C)[C@H](O)[C@@H](C)[C@@H](O)[C@@H](C)[C@H](OC(C)=O)[C@@H]1C [Compound 5, 3′-hydroxy-5′-[(4aS,7aS)-octahydro-6H-pyrrolo[3,4-b]pyridin-6-yl]benzoxazinorifamycin] | 8 (≈ 8.65 µM) | 2 (≈ 2.16 µM) | 0.00025 (≈ 0.00027 µM) | 0.5 (≈ 0.541 µM) | 0.015 (≈ 0.0162 µM)
9 | CO[C@H]1/C=C/O[C@@]2(C)Oc3c(C)c(O)c4c(=O)c(c5oc6cc(N7C[C@@H]8CCCN[C@@H]8C7)cc(O)c6nc-5c4c3C2=O)NC(=O)/C(C)=C\C=C\[C@H](C)[C@H](O)[C@@H](C)[C@@H](O)[C@@H](C)[C@H](O)[C@@H]1C [Compound 7, 25-O-deacetyl-3′-hydroxy-5′-[(4aS,7aS)-octahydro-6H-pyrrolo[3,4-b]pyridin-6-yl]benzoxazinorifamycin] | >8 | 4 (≈ 4.53 µM) | 0.004 (≈ 0.00453 µM) | 4 (≈ 4.53 µM) | 0.12 (≈ 0.136 µM)
10 | CO[C@H]1/C=C/O[C@@]2(C)Oc3c(C)c(O)c4c(=O)c(c5oc6cc(N7CCC(N8CCOCC8)CC7)cc(O)c6nc-5c4c3C2=O)NC(=O)/C(C)=C\C=C\[C@H](C)[C@H](O)[C@@H](C)[C@@H](O)[C@@H](C)[C@H](OC(C)=O)[C@@H]1C [Compound 9, 3′-hydroxy-5′-(4-morpholinyl-1-piperidinyl)benzoxazinorifamycin] | 8 (≈ 8.26 µM) | 2 (≈ 2.06 µM) | 0.001 (≈ 0.00103 µM) | 2 (≈ 2.06 µM) | 0.015 (≈ 0.0155 µM)
11 | CO[C@H]1/C=C/O[C@@]2(C)Oc3c(C)c(O)c4c(=O)c(c5oc6cc(N7CC8CCC(C7)N8)cc(O)c6nc-5c4c3C2=O)NC(=O)/C(C)=C\C=C\[C@H](C)[C@H](O)[C@@H](C)[C@@H](O)[C@@H](C)[C@H](OC(C)=O)[C@@H]1C [Compound 10, 3′-hydroxy-5′-(3,8-diazabicyclo[3.2.1]octan-3-yl)benzoxazinorifamycin] | >8 | 2 (≈ 2.2 µM) | 0.00012 (≈ 0.000132 µM) | 1 (≈ 1.1 µM) | 0.008 (≈ 0.00878 µM)
12 | CO[C@H]1/C=C/O[C@@]2(C)Oc3c(C)c(O)c4c(=O)c(c5oc6cc(N7CCC(N8CCOCC8)CC7)cc(O)c6nc-5c4c3C2=O)NC(=O)/C(C)=C\C=C\[C@H](C)[C@H](O)[C@@H](C)[C@@H](O)[C@@H](C)[C@H](O)[C@@H]1C [Compound 11, 25-O-deacetyl-3′-hydroxy-5′-(4-morpholinyl-1-piperidinyl)benzoxazinorifamycin] | 4 (≈ 4.31 µM) | 1 (≈ 1.08 µM) | 0.00012 (≈ 0.000129 µM) | 0.25 (≈ 0.27 µM) | 0.004 (≈ 0.00431 µM)
13 | COC1C=COC2(C)Oc3c(C)c(O)c4c(=O)c(c5oc6cc(N7CC(C)CC(C)C7)cc(O)c6nc-5c4c3C2=O)NC(=O)C(C)=CC=CC(C)C(O)C(C)C(O)C(C)C(O)C1C (stereo not shown) [Compound 113] |  | 0.12 (≈ 0.138 µM) | 0.002 (≈ 0.0023 µM) | 1 (≈ 1.15 µM) | 0.008 (≈ 0.0092 µM)
14 | CCc1cc(C)cc2nc3c4c5c6c(C)c(O)c4c(=O)c(c-3oc12)NC(=O)C(C)=CC=CC(C)C(O)C(C)C(O)C(C)C(O)C(C)C(OC)C=COC(C)(O6)C5=O (stereo not shown) [Compound 130] | >8 |  | 0.25 (≈ 0.319 µM) | 1 (≈ 1.27 µM) | 
